# Assay results: patent publication US6734139B1, “N-aryl-uracile-based herbicides” (priority 1999, dated 2004)
# Several values for one entry are separate records, joined by “and”; a condition that tells them apart may be missing. Identical values can stand only once.
# What was measured:
# Format in all cases: in vivo
# Galium [1] = assay: Post-emergence test (herbicidal action, Colby): Galium
# Ipomoea = assay: Pre-emergence test (herbicidal action, Colby): Ipomoea
# Digitaria = assay: Pre-emergence test (herbicidal action, Colby): Digitaria
# Bromus = assay: Pre-emergence test (herbicidal action, Colby): Bromus
# Alopecurus = assay: Pre-emergence test (herbicidal action, Colby): Alopecurus
# Chenopodium [2] = assay: Pre-emergence test (herbicidal action, Colby): Chenopodium
# Echinochloa = assay: Pre-emergence test (herbicidal action, Colby): Echinochloa
# Datura [3] = assay: Pre-emergence test (herbicidal action, Colby): Datura
# Abutilon [4] = assay: Pre-emergence test (herbicidal action, Colby): Abutilon; settings: for pest or weed control at 30 g/ha: 30 g of a.i./ha; for pest or weed control at 30 g/ha / pest or weed control at 60 g/ha: read-out: Abutilon; for pest or weed control at 60 g/ha: 60 g of a.i./ha; for pest or weed control at 125 g/ha: 125 g of a.i./ha
# weeds = assay: Pre-emergence test (herbicidal action against weeds, Colby)
# Source text: (§1) The expected action for a given combination of two herbicides can be calculated as follows (cf. COLBY, S. R.: “Calculating synergistic and antagonistic responses of herbicide combinations”, Weeds 15, Pages 20-22, 1967):
# (§2) If the actual damage exceeds the calculated value, the combination has a superadditive effect, that is to say a synergistic effect.
# The theoretically expected activity for a given combination of three herbicides can likewise be found in the literature mentioned above.
# Solvent: 2 to 3 parts by weight of acetone or N,N-dimethyl-formamide
# Emulsifier: 1 part by weight of alkylaryl polyglycol ether
# (§3) To produce a suitable preparation of active compound, 1 part by weight of active compound is mixed with the stated amount of solvent, the stated amount of emulsifier is added and the concentrate is diluted with water to the desired concentration. Formulated products are dissolved in water and then diluted with water to the desired concentration.
# (§4) The solutions of the other mixing components (active compounds or safeners) are prepared analogously. The separately prepared solutions of the various mixing components are then combined and, if appropriate, additional substances (formulation auxiliaries, additives, etc.) are added and, if appropriate, water is added to prepare the desired dilution.
# Seeds of the test plants are sown in standard soil. After 24 hours, the soil is sprayed with the preparation of active compound such that the particular amount of active compound desired in each case is applied per unit area. The concentration of active compound in the spray liquor is chosen such that the particular amount of active compound desired in each case is applied in 500 litres of water per hectare. The containers with the test plants are kept in a greenhouse at controlled temperature and controlled illumination until evaluation.
# (§5) After three weeks, the degree of damage to the plants is rated in % damage in comparison to the development of the untreated control. The figures denote
# (§6) 0%=no effect/no damage (like untreated control)
# Polygonum [5] = assay: Pre-emergence test (herbicidal action, Colby): Polygonum
# Galium [6] = assay: Pre-emergence test (herbicidal action, Colby): Galium
# Stellaria = assay: Pre-emergence test (herbicidal action, Colby): Stellaria
# Viola = assay: Pre-emergence test (herbicidal action, Colby): Viola; settings: 125 g of a.i./ha
# Amaranthus = assay: Post-emergence test (herbicidal action, Colby): Amaranthus
# Matricaria [7] = assay: Post-emergence test (herbicidal action, Colby): Matricaria; settings: 125 g of a.i./ha
# Abutilon [8] = assay: Post-emergence test (herbicidal action, Colby): Abutilon; settings: 60 g of a.i./ha
# Chenopodium [9] = assay: Post-emergence test (herbicidal action, Colby): Chenopodium; settings: 60 g of a.i./ha
# Solanum = assay: Post-emergence test (herbicidal action, Colby): Solanum
# Source text: as §1, §2, §3, §4, §5, §6
# Datura [10] = assay: Post-emergence test (herbicidal action, Colby): Datura
# Veronica = assay: Post-emergence test (herbicidal action, Colby): Veronica
# Source text: as §1, §2, §3, §4, §5, §6
# Polygonum [11] = assay: Post-emergence test (herbicidal action, Colby): Polygonum; settings: 125 g of a.i./ha
# Cassia = assay: Pre-emergence test (herbicidal action, Colby): Cassia
# Lolium = assay: Pre-emergence test (herbicidal action, Colby): Lolium
# Setaria = assay: Pre-emergence test (herbicidal action, Colby): Setaria
# Eriochloa = assay: Pre-emergence test (herbicidal action, Colby): Eriochloa
# Matricaria [12] = assay: Pre-emergence test (herbicidal action, Colby): Matricaria; settings: 125 g of a.i./ha
compound,measurement,setting,value
"CC(C)N.O=C(O)CNCP(=O)(O)O [glyphosate-isopropylammonium, N-phosphonomethyl-glycine (isopropylammonium salt)]",Galium,Galium [1]; 125 g of a.i./ha,0%
"CSc1nnc(C(C)(C)C)c(=O)n1N [metribuzin, 4-amino-6-tert-butyl-3-methylthio-1,2,4-triazin-5(4H)-one]",Ipomoea,Ipomoea; 30 g of a.i./ha,0%
same,Digitaria,Digitaria; 30 g of a.i./ha,30%
same,Digitaria,Digitaria; 60 g of a.i./ha,80%
same,Bromus,Bromus; 30 g of a.i./ha,0%
same,Alopecurus,Alopecurus; 30 g of a.i./ha,0%
same,Chenopodium,Chenopodium [2]; 60 g of a.i./ha,50%
same,Echinochloa,Echinochloa; 60 g of a.i./ha,0%
same,Echinochloa,Echinochloa; 125 g of a.i./ha,80%
same,Datura,Datura [3]; 30 g of a.i./ha,20%
same,Datura,Datura [3]; 60 g of a.i./ha,30%
same,pest or weed control at 30 g/ha,Abutilon [4],80%
same,pest or weed control at 60 g/ha,Abutilon [4],90%
same,Chenopodium (pre-emergence test),"weeds; Table 23, 30 g of a.i./ha",30
same,Lolium (pre-emergence test),"weeds; Table 23, 30 g of a.i./ha",0
same,Setaria (pre-emergence test),"weeds; Table 23, 30 g of a.i./ha",20
same,Eriochloa (pre-emergence test),"weeds; Table 23, 60 g of a.i./ha",0
same,Galium (pre-emergence test),"weeds; Table 23, 60 g of a.i./ha",20
same,Ipomoea (pre-emergence test),"weeds; Table 23, 60 g of a.i./ha",0
same,Setaria (pre-emergence test),"weeds; Table 23, 60 g of a.i./ha",80
same,Cassia (pre-emergence test),"weeds; Table A26, 60 g of a.i./ha",80
same,Echinochloa (pre-emergence test),"weeds; Table A26, 60 g of a.i./ha",30
same,Matricaria (pre-emergence test),"weeds; Table A26, 60 g of a.i./ha",60
same,Avena (pre-emergence test),"weeds; Table A26, 125 g of a.i./ha",40
same,Digitaria (pre-emergence test),"weeds; Table A26, 125 g of a.i./ha",90
same,Echinochloa (pre-emergence test),"weeds; Table A26, 125 g of a.i./ha",80
same,Lolium (pre-emergence test),"weeds; Table A26, 125 g of a.i./ha",70
same,Matricaria (pre-emergence test),"weeds; Table A26, 125 g of a.i./ha",70
same,Setaria (pre-emergence test),"weeds; Table A26, 125 g of a.i./ha",80
same,Polygonum,Polygonum [5]; 60 g of a.i./ha,40%
same,Galium,Galium [6]; 60 g of a.i./ha,0%
"CCc1cccc(C)c1N(C(=O)CCl)[C@@H](C)COC [metolachlor, (S)-2-chloro-N-(2-ethyl-6-methyl-phenyl)-N-(2-methoxy-1-methylethyl)-acetamide]",Ipomoea,Ipomoea; 250 g of a.i./ha,30%
same,Digitaria,Digitaria; 250 g of a.i./ha,90%
same,Stellaria,Stellaria; 125 g of a.i./ha,30%
same,Stellaria,Stellaria; 250 g of a.i./ha,80%
same,pest or weed control at 125 g/ha,Abutilon [4],30%
same,pest or weed control at 250 g/ha,Abutilon [4]; 250 g of a.i./ha,30%
same,Viola,Viola,50%
"O=C(O)COc1ccc(Cl)cc1Cl [2,4-D, 2,4-dichloro-phenoxyacetic acid]",Amaranthus,Amaranthus; 86 g of a.i./ha,30%
same,Galium,Galium [1]; 86 g of a.i./ha,0%
"Cc1nn(-c2cc(NS(C)(=O)=O)c(Cl)cc2Cl)c(=O)n1C(F)F [sulfentrazone, 2-(2,4-dichloro-5-methylsulphonylamino-phenyl)-4-difluoromethyl-5-methyl-2,4-dihydro-3H-1,2,4-triazol-3-one]",Matricaria,Matricaria [7],0%
same,Amaranthus,Amaranthus; 60 g of a.i./ha,90%
same,Abutilon,Abutilon [8],0%
same,Chenopodium,Chenopodium [9],60%
same,Solanum,Solanum; 60 g of a.i./ha,0%
same,Solanum,Solanum; 125 g of a.i./ha,0%
same,Datura,Datura [10]; 60 g of a.i./ha,0%
same,Datura,Datura [10]; 125 g of a.i./ha,0%
same,Galium,Galium [1]; 60 g of a.i./ha,0%
same,Veronica,Veronica; 60 g of a.i./ha,0%
same,Veronica,Veronica; 125 g of a.i./ha,20%
same,Polygonum,Polygonum [11],50%
"CC(C)c1nn(C(=O)NC(C)(C)C)c(=O)n1N [amicarbazone, 4-amino-N-(1,1-dimethyl-ethyl)-4,5-dihydro-3-(1-methyl-ethyl)-5-oxo-1H-1,2,4-triazole-1-carboxamide]",Ipomoea,Ipomoea; 30 g of a.i./ha,50%
same,Digitaria,Digitaria; 30 g of a.i./ha,20%
same,Digitaria,Digitaria; 60 g of a.i./ha,60%
same,Alopecurus,Alopecurus; 60 g of a.i./ha,20%
same,Chenopodium,Chenopodium [2]; 30 g of a.i./ha,50%
same,Cassia,Cassia; 30 g of a.i./ha,70%
same,Echinochloa,Echinochloa; 60 g of a.i./ha,0%
same,Lolium,Lolium; 30 g of a.i./ha,0%
same,Datura,Datura [3]; 30 g of a.i./ha,0%
same,Datura,Datura [3]; 60 g of a.i./ha,20%
same,pest or weed control at 30 g/ha,Abutilon [4],20%
same,pest or weed control at 60 g/ha,Abutilon [4],99%
same,Setaria,Setaria; 30 g of a.i./ha,20%
same,Setaria,Setaria; 60 g of a.i./ha,20% and 30%
same,Eriochloa,Eriochloa; 30 g of a.i./ha,30%
same,Eriochloa,Eriochloa; 60 g of a.i./ha,70%
same,Cassia (pre-emergence test),"weeds; Table A22, 60 g of a.i./ha",80
same,Datura (pre-emergence test),"weeds; Table A22, 125 g of a.i./ha",50
same,Polygonum (pre-emergence test),"weeds; Table A22, 125 g of a.i./ha",90
same,Polygonum,Polygonum [5]; 60 g of a.i./ha,80%
"CC(C)N(C(=O)COc1nnc(C(F)(F)F)s1)c1ccc(F)cc1 [flufenacet, N-(4-fluoro-phenyl)-N-i-propyl-2-(5-trifluoromethyl-1,3,4-thiadiazol-2-yl-oxy)-acetamide]",Ipomoea,Ipomoea; 30 g of a.i./ha,30%
same,Ipomoea,Ipomoea; 60 g of a.i./ha,30%
same,Ipomoea,Ipomoea; 125 g of a.i./ha,30%
same,Digitaria,Digitaria; 30 g of a.i./ha,80%
same,Digitaria,Digitaria; 60 g of a.i./ha,80%
same,Bromus,Bromus; 60 g of a.i./ha,30%
same,Alopecurus,Alopecurus; 60 g of a.i./ha,70%
same,Chenopodium,Chenopodium [2]; 30 g of a.i./ha,30%
same,Chenopodium,Chenopodium [2]; 60 g of a.i./ha,50%
same,Cassia,Cassia; 60 g of a.i./ha,60%
same,Echinochloa,Echinochloa; 60 g of a.i./ha,90%
same,Lolium,Lolium; 60 g of a.i./ha,80%
same,Datura,Datura [3]; 30 g of a.i./ha,20%
same,Datura,Datura [3]; 60 g of a.i./ha,40%
same,Stellaria,Stellaria; 60 g of a.i./ha,50%
same,Stellaria,Stellaria; 125 g of a.i./ha,70%
same,pest or weed control at 30 g/ha,Abutilon [4],20%
same,pest or weed control at 60 g/ha,Abutilon [4],20%
same,pest or weed control at 125 g/ha,Abutilon [4],20%
same,Setaria,Setaria; 30 g of a.i./ha,70%
same,Setaria,Setaria; 60 g of a.i./ha,80% and 90%
same,Eriochloa,Eriochloa; 30 g of a.i./ha,80%
same,Chenopodium (pre-emergence test),"weeds; Table 23, 30 g of a.i./ha",30
same,Ipomoea (pre-emergence test),"weeds; Table 23, 30 g of a.i./ha",50
same,Lolium (pre-emergence test),"weeds; Table 23, 30 g of a.i./ha",70
same,Setaria (pre-emergence test),"weeds; Table 23, 30 g of a.i./ha",70
same,Chenopodium (pre-emergence test),"weeds; Table 23, 60 g of a.i./ha",50
same,Eriochloa (pre-emergence test),"weeds; Table 23, 60 g of a.i./ha",90
same,Galium (pre-emergence test),"weeds; Table 23, 60 g of a.i./ha",40
same,Setaria (pre-emergence test),"weeds; Table 23, 60 g of a.i./ha",90
same,Chenopodium (pre-emergence test),"weeds; Table A21, 60 g of a.i./ha",50
same,Ipomoea (pre-emergence test),"weeds; Table A21, 60 g of a.i./ha",70
same,Polygonum (pre-emergence test),"weeds; Table A21, 60 g of a.i./ha",0
same,Datura (pre-emergence test),"weeds; Table A21, 125 g of a.i./ha",50
same,Ipomoea (pre-emergence test),"weeds; Table A21, 125 g of a.i./ha",80
same,Polygonum (pre-emergence test),"weeds; Table A21, 125 g of a.i./ha",30
same,Polygonum,Polygonum [5]; 30 g of a.i./ha,20%
same,Polygonum,Polygonum [5]; 60 g of a.i./ha,30%
same,Matricaria,Matricaria [12],60%
same,Galium,Galium [6]; 30 g of a.i./ha,30%
